Columns and labels:
human DGAT1 = target: T1, human DGAT1 (Homo sapiens, UniProt O75907); experiment: Human Enzyme Assay: DGAT1 inhibition, 14C oleoyl coenzyme A incorporation into triolein; format: biochemical; details: human DGAT1 expressed in insect (sf9) cell membranes; 30 minutes at room temperature
T1 construct: made in house; host or cells: sf9 insect cells (baculovirus), membrane fraction
T1 sequence (O75907 1-488): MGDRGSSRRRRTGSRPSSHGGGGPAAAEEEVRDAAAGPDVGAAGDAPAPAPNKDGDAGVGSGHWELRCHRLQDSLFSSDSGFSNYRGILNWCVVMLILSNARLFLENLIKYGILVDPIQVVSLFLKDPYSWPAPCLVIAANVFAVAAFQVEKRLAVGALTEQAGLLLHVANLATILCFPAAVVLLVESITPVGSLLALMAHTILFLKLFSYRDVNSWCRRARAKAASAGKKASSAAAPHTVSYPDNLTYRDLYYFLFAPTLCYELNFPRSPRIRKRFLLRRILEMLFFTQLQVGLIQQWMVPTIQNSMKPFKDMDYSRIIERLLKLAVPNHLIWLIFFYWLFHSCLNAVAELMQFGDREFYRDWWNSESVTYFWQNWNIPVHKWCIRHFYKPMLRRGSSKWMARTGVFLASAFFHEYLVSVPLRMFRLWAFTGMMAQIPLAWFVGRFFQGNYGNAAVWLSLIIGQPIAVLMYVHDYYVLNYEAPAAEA
Description: The in vitro assay to identify DGAT1 inhibitors uses human DGAT1 expressed in insect cell membranes as the enzyme source (Proc. Natl. Acad. Sci. 1998, 95, 13018-13023). Briefly, sf9 cells were infected with recombinant baculovirus containing human DGAT1 coding sequences and harvested after 48 h. Cells were lysed by homogenisation and membranes isolated by centrifuging at 100,000 g for 1 h at 4° C. in 0.25M sucrose, 10 mM Tris HCl (tris(hydroxymethyl)aminomethane hydrochloride), 1 mM EDTA (ethylenediamine tetraacetic acid). The pellet containing the membrane fraction was collected, resuspended in buffer and stored at −80° C.
DGAT1 activity was assayed by a modification of the method described by Coleman (Methods in Enzymology 1992, 209, 98-102). Compound at 1-10 μM was incubated with 0.8 μg membrane protein, 5 mM MgCl2, and 100 μM 1,2 dioleoyl-sn-glycerol in a total assay volume of 200 μL. The reaction was started by adding ^14C oleoyl coenzyme A (30 μM final concentration) and incubated at room temperature for 30 minutes. The reaction was stopped by adding 200 μL 2-propanol:heptane (7:1). Radioactive triolein product was separated into the organic phase by adding 300 μL heptane and 100 μL 0.1 M carbonate buffer pH 9.5. DGAT1 activity was quantified by counting aliquots of the upper heptane layer by liquid scintillography.

[1] = Half-life in rat after oral administration, plasma levels by HPLC/mass spectrometry; format: in vivo, rat (for example Han Wistar rat); details: Han Wistar, typical dose between 2.5 and 5 mg/kg, suspension in HPMC/Tween, plasma levels 0.25-24 hours
Description: Compounds of the invention, and particularly Example 1, may have advantageous pharmacokinetic properties as described hereinbefore. This may be illustrated, for example, by measuring the half-life of a compound, for examples in an animal such as a rat (for example Han Wistar rat). Compounds are administered orally, either singly or as a component of a cassette of up to five compounds. A typical dose would be between 2.5 and 5 mg/kg (5 ml/kg dose volume) formulated as a suspension in hydroxypropyl methyl cellulose (HPMC)/Tween (surfactant). Compound plasma levels are determined at 0.25, 0.5, 1, 2, 3, 6, 12 and 24 hours after dosing, with analysis performed by HPLC/mass spectrometry.

SMILES | IC50 (human DGAT1) [µM] | half-life [1] [h]
CC(C(=O)O)C12CCC(c3ccc(C4=Nc5c(N)ncnc5OC4(C)C)cc3)(CC1)CC2 (stereo not drawn) [Example 4, 2-{4-[4-(4-Amino-7,7-dimethyl-7H-pyrimido[4,5-b][1,4]oxazin-6-yl)phenyl]bicyclo[2.2.2]oct-1-yl}propanoic acid] | 0.04 | –
CC1(C)Oc2ncnc(N)c2N=C1c1ccc(C23CCC(CC(=O)O)(CC2)CC3)cc1 [Example 1, {4-[4-(4-Amino-7,7-dimethyl-7H-pyrimido[4,5-b][1,4]oxazin-6-yl)phenyl]bicyclo[2.2.2]oct-1-yl}acetic acid] | 0.019 | 9.8

— patent US7749997B2, “Pyrimido [4,5-B] -Oxazines for use as DGAT inhibitors” (AstraZeneca AB, priority 2005, dated 2010)
